Several values for one entry are separate records, joined by “and”; a condition that tells them apart may be missing. Identical values can stand only once.
What was measured:
cattle = settings: added to organic roughage fed to cattle; cited from earlier work
[1] = tested on: mixed culture from municipal sludge digester; test: Total Solids (TS) of batch anaerobic digester reactors
Description: A 30 ml samples is withdrawn from each of the 12 reactors into refractory pans after the weight of empty pans was recorded (say W1). […] The weight of pans with dried sample is then noted (say W2). The difference W2˜W1, gives the weight of solids in 30 ml sample. From this the total Solids concentration in units of g/liter is calculated. This TS parameter is indicative of concentration of total solids in the sample including organic substrate, inert organics and inorganics.
(§1) Municipal sludge from the city of Lubbock, Wastewater Treatment Plant was digested in 12 batch digesters. Using twelve batch reactors allowed the collection of control reactors data (i.e., no formate in the reactors) in triplicate, titration studies of increasing formate concentration, and duplicates/triplicates of varying formate concentration. Experiments were conducted in the laboratories of Texas Tech University.
(§2) The reactors were setup on Mar. […] The substrate taken was 2 parts of 50 g/liter sucrose solution mixed with 1 part of digested municipal sludge which acts as the seed material for incorporation of microbes into the reactors. The experiments were started with the following protocol. [drawing 1]

[2] = tested on: mixed culture from municipal sludge digester; test: Volume and composition of gas generated in batch anaerobic digesters
Description: Volumetric gas production measurements
The gases generated by the biological activity within the reactors were collected in the overhanging plastic bags. The bags are connected to a tank containing colored water via a gas port used for sampling purpose to determine the gas composition. To measure the volume of gas in the bag, the water in the tank is drained out maintaining a suction pressure head difference of 2 cm between the atmospheric air and the gas inside the tank. The water is drained until there is a jump in the pressure head differences, which is actually noted by observing a jump in the difference in levels of manometer limbs. […] The difference between final water level and initial water level is measured by the scale on the side of the tank and is indicative of the volume of gas collected in each of the bags. The gas is returned to the bags by pumping the drained water back into the water tank, whereby the collected gas inside the water tank is pushed back into the overhanging plastic bags.
Gas composition measurements
To analyze the composition of the gases collected, a small sample of gas was withdrawn through a gas port and then sent out for analysis by a commercial laboratory utilizing gas chromatography.
as §1, §2

[3] = tested on: mixed culture from municipal sludge digester; test: Total Volatile Solids (TVS) of batch anaerobic digester reactors
Description: After the above TS measurements were completed, the pans together with dried samples are put into furnace at 550° C. for about two hours. The weight of the pans are then noted (say W3). The difference […] then gives the weight of volatile solids in the 30 ml sample. Again this Total Volatile Solids concentration is manipulated to units of g/liter. TVS determination represents the concentration of the organic substrate in the test sample.
as §1, §2

[4] = 100000 ppm, average of reactors

## O=C[O-].[Na+] [sodium formate]
cattle
  increase of digestibility of the feed: 4-27%
[1]; 1000 ppm, day 2
  Total Solids: 37.6 g/L and 35.9 g/L
[1]; 1000 ppm, day 7
  Total Solids: 33.8 g/L and 32.5 g/L and 32.2 g/L
[1]; 1000 ppm, day 16
  Total Solids: 20.3 g/L and 15.8 g/L and 21.4 g/L
[1]; 1000 ppm, day 55
  Total Solids: 15.6 g/L and 13.2 g/L and 17.3 g/L
[1]; 1000 ppm, day 243 (so in the source)
  Total Solids: 16.6 g/L and 13.0 g/L and 17.8 g/L
[1]; 1000 ppm, formate addition at t = 0
  Total Solids: 42.3 g/L and 41.8 g/L and 40.8 g/L
[1]; 5000 ppm, day 2
  Total Solids: 35.5 g/L
[1]; 5000 ppm, day 7
  Total Solids: 34.6 g/L
[1]; 5000 ppm, day 16
  Total Solids: 20.7 g/L
[1]; 5000 ppm, day 55
  Total Solids: 23.2 g/L
[1]; 5000 ppm, day 243 (so in the source)
  Total Solids: 22.0 g/L
[1]; 5000 ppm, formate addition at t = 0
  Total Solids: 47.5 g/L
[1]; 10000 ppm, day 2
  Total Solids: 44.5 g/L and 52.6 g/L and 48.3 g/L
[1]; 10000 ppm, day 7
  Total Solids: 36.3 g/L and 45.3 g/L and 43.5 g/L
[1]; 10000 ppm, day 16
  Total Solids: 34.6 g/L and 41.2 g/L and 31.2 g/L
[1]; 10000 ppm, day 55
  Total Solids: 36.3 g/L and 36.8 g/L and 33.3 g/L
[1]; 10000 ppm, day 243 (so in the source)
  Total Solids: 33.4 g/L and 39.6 g/L and 30.7 g/L
[1]; 10000 ppm, formate addition at t = 0
  Total Solids: 55.1 g/L and 54.9 g/L and 53.4 g/L
[1]; 100000 ppm, day 2
  Total Solids: 254 g/L and 289.6 g/L
[1]; 100000 ppm, day 7
  Total Solids: 91.5 g/L and 147.4 g/L
[1]; 100000 ppm, day 16
  Total Solids: 129 g/L and 151.1 g/L
[1]; 100000 ppm, day 55
  Total Solids: 128 g/L and 160 g/L
[1]; 100000 ppm, day 243 (so in the source)
  Total Solids: 125 g/L and 147.8 g/L
[1]; 100000 ppm, formate addition at t = 0
  Total Solids: 180.4 g/L and 188 g/L
[2]; 1000 ppm, average of reactors
  Average Composition CH4: 0%
  Average Composition CO2: 18.3%
  Average Composition N2: 71.7%
[2]; 1000 ppm, single reactors
  Composition CH4: 0%
  Composition CO2: 40% and 20% and 25%
  Composition N2: 60% and 80% and 75%
[2]; 5000 ppm
  Average Composition CH4: 0.1%
  Average Composition CO2: 41%
  Average Composition N2: 59%
[2]; 5000 ppm, reactor 3
  Composition CH4: 0.1%
  Composition CO2: 41%
  Composition N2: 59%
  Volume of CO2 generated: 725 mL
  Volume of gas: 1750 mL
[2]; 10000 ppm, average of reactors
  Average Composition CH4: 0%
  Average Composition CO2: 41.7%
  Average Composition N2: 58.3%
[2]; 10000 ppm, single reactors
  Composition CH4: 0%
  Composition CO2: 57% and 43% and 40%
  Composition N2: 43% and 57% and 60%
[2]; [4]
  Average Composition CH4: 0%
  Average Composition CO2: 59%
  Average Composition N2: 41.5%
[2]; 100000 ppm, single reactors
  Composition CH4: 0%
  Composition CO2: 70% and 47%
  Composition N2: 30% and 53%
  Volume of CO2 generated: 910 mL and 1663 mL
[3]; 1000 ppm, day 2
  Total Volatile Solids: 33.4 g/L and 32.6 g/L and 26.7 g/L
[3]; 1000 ppm, day 7
  Total Volatile Solids: 30.6 g/L and 29.9 g/L and 29.3 g/L
[3]; 1000 ppm, day 16
  Total Volatile Solids: 16.4 g/L and 13.1 g/L and 18.1 g/L
[3]; 1000 ppm, day 24
  Total Volatile Solids: 14.4 g/L and 10.3 g/L and 15.2 g/L
[3]; 1000 ppm, day 55
  Total Volatile Solids: 12.9 g/L and 10.7 g/L and 14.2 g/L
[3]; 1000 ppm, with formate addition at t = 0
  Total Volatile Solids: 39.6 g/L and 38.8 g/L and 37.3 g/L
[3]; 5000 ppm, day 2
  Total Volatile Solids: 23.7 g/L
[3]; 5000 ppm, day 7
  Total Volatile Solids: 20.3 g/L
[3]; 5000 ppm, day 16
  Total Volatile Solids: 12.6 g/L
[3]; 5000 ppm, day 24
  Total Volatile Solids: 11.7 g/L
[3]; 5000 ppm, day 55
  Total Volatile Solids: 14.7 g/L
[3]; 5000 ppm, with formate addition at t = 0
  Total Volatile Solids: 41.8 g/L
[3]; 10000 ppm, day 2
  Total Volatile Solids: 25.5 g/L and 30.2 g/L and 29.8 g/L
[3]; 10000 ppm, day 7
  Total Volatile Solids: 19.2 g/L and 24 g/L and 24.1 g/L
[3]; 10000 ppm, day 16
  Total Volatile Solids: 17.1 g/L and 21.0 g/L and 15.0 g/L
[3]; 10000 ppm, day 24
  Total Volatile Solids: 16.4 g/L and 18.9 g/L and 15.2 g/L
[3]; 10000 ppm, day 55
  Total Volatile Solids: 19.8 g/L and 20.1 g/L and 18.5 g/L
[3]; 10000 ppm, with formate addition at t = 0
  Total Volatile Solids: 38.8 g/L and 46.9 g/L and 46.4 g/L
[3]; 100000 ppm, day 2
  Total Volatile Solids: 68.5 g/L and 80.8 g/L
[3]; 100000 ppm, day 7
  Total Volatile Solids: 45.8 g/L and 52.7 g/L
[3]; 100000 ppm, day 16
  Total Volatile Solids: 44.7 g/L and 54.10 g/L
[3]; 100000 ppm, day 24
  Total Volatile Solids: 41.4 g/L and 51.6 g/L
[3]; 100000 ppm, day 55
  Total Volatile Solids: 45.5 g/L and 65.8 g/L
[3]; 100000 ppm, with formate addition at t = 0
  Total Volatile Solids: 126.6 g/L and 134.9 g/L
